# Measurements reported in ChEMBL document CHEMBL4823291, “Discovery of 5,6,7,8-tetrahydropyrido[3,4-d]pyrimidine derivatives as novel selective Axl inhibitors” (Bioorg Med Chem Lett, 2021).
# Experiments:
# BaF3 = experiment: Ratio of IC50 for Mer in mouse BaF3 cells to IC50 for Axl in mouse BaF3 cells; type: cell-based
# [1] = biological target: T1, Tyrosine-protein kinase Mer (Mus musculus, UniProt Q60805); experiment: Inhibition of Mer in mouse BaF3 cells; type: cell-based
# T1 sequence (Q60805 whole entry): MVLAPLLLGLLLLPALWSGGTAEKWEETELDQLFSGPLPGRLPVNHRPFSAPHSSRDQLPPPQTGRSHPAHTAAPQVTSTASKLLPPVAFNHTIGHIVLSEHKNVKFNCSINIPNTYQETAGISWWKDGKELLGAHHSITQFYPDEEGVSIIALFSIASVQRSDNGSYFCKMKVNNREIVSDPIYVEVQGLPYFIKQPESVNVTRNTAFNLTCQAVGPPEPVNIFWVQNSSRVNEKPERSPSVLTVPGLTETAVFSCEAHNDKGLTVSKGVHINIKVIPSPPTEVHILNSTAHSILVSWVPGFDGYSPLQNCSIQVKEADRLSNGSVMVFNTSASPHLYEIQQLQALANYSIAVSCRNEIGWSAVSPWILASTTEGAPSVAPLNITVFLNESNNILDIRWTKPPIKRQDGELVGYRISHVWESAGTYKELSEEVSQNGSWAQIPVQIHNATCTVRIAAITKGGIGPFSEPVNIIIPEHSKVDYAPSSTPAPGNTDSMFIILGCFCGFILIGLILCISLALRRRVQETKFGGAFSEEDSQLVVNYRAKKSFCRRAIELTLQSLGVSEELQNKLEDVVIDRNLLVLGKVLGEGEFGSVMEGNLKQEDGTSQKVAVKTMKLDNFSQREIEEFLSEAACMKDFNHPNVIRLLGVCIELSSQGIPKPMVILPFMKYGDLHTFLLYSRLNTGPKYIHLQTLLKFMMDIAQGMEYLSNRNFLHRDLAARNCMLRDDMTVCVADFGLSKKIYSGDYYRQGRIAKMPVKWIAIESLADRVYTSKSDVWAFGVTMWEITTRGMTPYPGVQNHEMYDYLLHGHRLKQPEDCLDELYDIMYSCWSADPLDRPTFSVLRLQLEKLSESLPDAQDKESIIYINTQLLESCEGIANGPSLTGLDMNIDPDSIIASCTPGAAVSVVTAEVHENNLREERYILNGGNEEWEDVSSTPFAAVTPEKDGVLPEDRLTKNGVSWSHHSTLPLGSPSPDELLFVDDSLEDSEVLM
# Homo sapiens = organism: Homo sapiens; experiment: Ratio of IC50 for Mer (unknown origin) to IC50 for Axl (unknown origin)
# [2] = biological target: T2, Tyrosine-protein kinase receptor UFO (Homo sapiens, UniProt P30530); experiment: Inhibition of Axl (unknown origin) by cell free assay
# T2 sequence (P30530 whole entry): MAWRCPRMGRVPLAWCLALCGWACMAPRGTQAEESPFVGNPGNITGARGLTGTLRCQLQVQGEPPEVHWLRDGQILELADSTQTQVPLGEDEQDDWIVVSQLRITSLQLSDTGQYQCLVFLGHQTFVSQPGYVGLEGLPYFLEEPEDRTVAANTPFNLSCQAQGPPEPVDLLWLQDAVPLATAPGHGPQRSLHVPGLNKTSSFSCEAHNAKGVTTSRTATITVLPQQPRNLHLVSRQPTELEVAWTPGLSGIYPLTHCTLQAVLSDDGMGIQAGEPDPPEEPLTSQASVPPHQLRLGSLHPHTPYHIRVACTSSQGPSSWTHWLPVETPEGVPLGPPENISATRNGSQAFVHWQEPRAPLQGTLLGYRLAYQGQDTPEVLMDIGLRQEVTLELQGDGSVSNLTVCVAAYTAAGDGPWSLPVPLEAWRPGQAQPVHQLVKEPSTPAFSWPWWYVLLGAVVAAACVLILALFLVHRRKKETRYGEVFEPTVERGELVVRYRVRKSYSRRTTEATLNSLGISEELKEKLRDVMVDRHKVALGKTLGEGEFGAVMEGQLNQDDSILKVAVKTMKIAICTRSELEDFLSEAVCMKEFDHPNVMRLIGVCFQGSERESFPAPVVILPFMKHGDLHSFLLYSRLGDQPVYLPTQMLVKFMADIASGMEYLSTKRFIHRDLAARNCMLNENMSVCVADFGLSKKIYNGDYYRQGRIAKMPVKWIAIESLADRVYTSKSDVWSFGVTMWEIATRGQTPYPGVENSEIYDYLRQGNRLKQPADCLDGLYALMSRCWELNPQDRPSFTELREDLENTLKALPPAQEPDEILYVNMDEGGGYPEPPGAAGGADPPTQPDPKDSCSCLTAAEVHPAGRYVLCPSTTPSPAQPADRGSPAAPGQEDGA
# [3] = biological target: T3, Tyrosine-protein kinase Mer (Homo sapiens, UniProt Q12866); experiment: Inhibition of Mer (unknown origin) by cell free assay
# T3 sequence (Q12866 whole entry): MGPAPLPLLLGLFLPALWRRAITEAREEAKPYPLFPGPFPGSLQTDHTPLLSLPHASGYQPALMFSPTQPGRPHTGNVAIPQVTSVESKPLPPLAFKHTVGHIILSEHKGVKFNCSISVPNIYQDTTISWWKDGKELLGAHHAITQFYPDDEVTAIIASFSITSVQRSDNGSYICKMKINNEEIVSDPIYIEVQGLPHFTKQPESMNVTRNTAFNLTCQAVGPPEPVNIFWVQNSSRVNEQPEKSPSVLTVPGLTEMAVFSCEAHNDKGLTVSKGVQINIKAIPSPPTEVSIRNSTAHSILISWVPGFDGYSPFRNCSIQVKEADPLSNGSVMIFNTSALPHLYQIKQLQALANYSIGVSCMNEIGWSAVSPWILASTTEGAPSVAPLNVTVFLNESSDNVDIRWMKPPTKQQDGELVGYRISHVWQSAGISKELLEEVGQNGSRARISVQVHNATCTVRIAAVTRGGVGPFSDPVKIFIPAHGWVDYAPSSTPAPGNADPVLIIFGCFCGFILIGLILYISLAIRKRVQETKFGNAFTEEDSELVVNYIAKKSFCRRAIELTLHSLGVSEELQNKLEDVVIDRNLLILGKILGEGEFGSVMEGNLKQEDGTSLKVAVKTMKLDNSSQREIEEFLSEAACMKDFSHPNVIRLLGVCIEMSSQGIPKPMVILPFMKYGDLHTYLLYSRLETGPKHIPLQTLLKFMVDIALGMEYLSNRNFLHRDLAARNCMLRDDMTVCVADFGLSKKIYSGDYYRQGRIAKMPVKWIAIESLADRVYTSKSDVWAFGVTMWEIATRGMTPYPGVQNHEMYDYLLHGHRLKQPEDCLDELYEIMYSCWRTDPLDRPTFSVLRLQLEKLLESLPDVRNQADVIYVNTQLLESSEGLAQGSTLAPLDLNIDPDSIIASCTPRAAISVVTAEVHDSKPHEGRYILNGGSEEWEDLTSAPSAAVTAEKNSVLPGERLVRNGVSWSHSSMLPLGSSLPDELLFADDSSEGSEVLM
# [4] = biological target: T4, Tyrosine-protein kinase receptor UFO (Mus musculus, UniProt Q00993); experiment: Inhibition of Axl in mouse BaF3 cells; type: cell-based
# T4 sequence (Q00993 whole entry): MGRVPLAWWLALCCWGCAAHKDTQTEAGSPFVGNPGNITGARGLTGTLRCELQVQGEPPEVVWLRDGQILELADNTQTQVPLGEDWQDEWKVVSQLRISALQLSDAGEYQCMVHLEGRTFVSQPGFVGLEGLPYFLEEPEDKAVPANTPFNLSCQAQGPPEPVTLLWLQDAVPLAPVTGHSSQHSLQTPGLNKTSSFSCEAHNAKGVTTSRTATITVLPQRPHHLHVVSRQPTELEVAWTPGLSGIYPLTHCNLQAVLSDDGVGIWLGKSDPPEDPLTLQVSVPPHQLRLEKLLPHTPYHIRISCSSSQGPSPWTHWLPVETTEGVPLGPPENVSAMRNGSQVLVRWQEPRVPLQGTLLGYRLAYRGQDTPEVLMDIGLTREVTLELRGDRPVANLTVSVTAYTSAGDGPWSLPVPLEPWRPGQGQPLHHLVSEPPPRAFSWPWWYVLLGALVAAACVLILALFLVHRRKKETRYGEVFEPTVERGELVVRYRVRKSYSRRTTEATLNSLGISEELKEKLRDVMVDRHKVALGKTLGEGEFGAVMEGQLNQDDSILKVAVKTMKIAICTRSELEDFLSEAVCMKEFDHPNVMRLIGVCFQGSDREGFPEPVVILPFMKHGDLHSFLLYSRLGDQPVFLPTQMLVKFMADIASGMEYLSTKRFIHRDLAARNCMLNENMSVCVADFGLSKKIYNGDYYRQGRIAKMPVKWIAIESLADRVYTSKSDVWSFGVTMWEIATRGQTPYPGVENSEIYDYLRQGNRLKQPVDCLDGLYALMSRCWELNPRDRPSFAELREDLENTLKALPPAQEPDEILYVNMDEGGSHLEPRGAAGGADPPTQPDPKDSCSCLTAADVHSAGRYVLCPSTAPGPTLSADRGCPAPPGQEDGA
Compound,Ratio IC50 (BaF3),IC50 [1] [nM],Ratio IC50 (Homo sapiens),IC50 [2] [nM],IC50 [3] [nM],IC50 [4] [nM]
CC(C)n1cc(C(=O)Nc2ccc(Oc3ncnc4c3CCN(C3CCN(C)CC3)C4)c(F)c2)c(=O)n(-c2ccc(F)cc2)c1=O,4.2,55,5.5,5.6,31,13
CC(C)n1cc(C(=O)Nc2ccc(Oc3ncnc4c3CCN(C(=O)CC3CCN(C)CC3)C4)c(F)c2)c(=O)n(-c2ccc(F)cc2)c1=O,5.2,150,20,4.3,88,29
CC(C)n1cc(C(=O)Nc2ccc(Oc3ncnc4c3CCN(C(=O)C3CCC3)C4)c(F)c2)c(=O)n(-c2ccc(F)cc2)c1=O,4.4,440,> 189,5.3,> 1000,100
CC(C)n1cc(C(=O)Nc2ccc(Oc3ncnc4c3CN(CC3CCOCC3)C4)c(F)c2)c(=O)n(-c2ccc(F)cc2)c1=O,2.6,240,4,8.6,34,93
CC(C)n1cc(C(=O)Nc2ccc(Oc3ncnc4c3CCN(CC3CCN(C)CC3)C4)c(F)c2)c(=O)n(-c2ccc(F)cc2)c1=O,5.2,78,20,3.7,74,15
CC(C)n1cc(C(=O)Nc2ccc(Oc3ncnc4c3CN(C)CC4)c(F)c2)c(=O)n(-c2ccc(F)cc2)c1=O,4.2,810,4.2,64,270,150
CC(C)n1cc(C(=O)Nc2ccc(Oc3ncnc4c3CCN(CC(=O)N3CCN(C)CC3)C4)c(F)c2)c(=O)n(-c2ccc(F)cc2)c1=O,4.7,370,22,9.5,210,78
CC(C)n1cc(C(=O)Nc2ccc(Oc3ncnc4c3CN(CC3CCN(C)CC3)C4)c(F)c2)c(=O)n(-c2ccc(F)cc2)c1=O,2.5,80,11,6.2,69,32
CN1CCC(CN2CCc3c(ncnc3Oc3ccc(NC(=O)c4cn(CC5CCC5)c(=O)n(-c5ccc(F)cc5)c4=O)cc3F)C2)CC1,8.1,130,37,2.4,88,16
CC(C)n1cc(C(=O)Nc2ccc(Oc3ncnc4c3CCN(C(=O)CCN3CCCC3)C4)c(F)c2)c(=O)n(-c2ccc(F)cc2)c1=O,3.9,290,31,7.8,240,74
CC(C)n1cc(C(=O)Nc2ccc(Oc3ncnc4c3CC(=O)N4)c(F)c2)c(=O)n(-c2ccc(F)cc2)c1=O,2.9,280,2.9,26,76,84
CC(C)n1cc(C(=O)Nc2ccc(Oc3ncnc4c3CN(C(=O)C3CC3)C4)c(F)c2)c(=O)n(-c2ccc(F)cc2)c1=O,2.8,34,< 1.5,2.7,< 4.1,12
CN1CCC(CN2CCc3c(ncnc3Oc3ccc(NC(=O)c4cn(CC5CC5)c(=O)n(-c5ccc(F)cc5)c4=O)cc3F)C2)CC1,6.1,51,33,1.9,62,8.4
CC(C)n1cc(C(=O)Nc2ccc(Oc3ncnc4c3CCN(C(=O)CN3CCOCC3)C4)c(F)c2)c(=O)n(-c2ccc(F)cc2)c1=O,7,910,10,17,170,130
CC(C)n1cc(C(=O)Nc2ccc(Oc3ncnc4c3CCN(CC(=O)N3CCC3)C4)c(F)c2)c(=O)n(-c2ccc(F)cc2)c1=O,5.6,370,14,14,200,66
